Measured values: patent publication US20150158914A1, “PEPTIDES, CONSTRUCTS AND USES THEREFOR” (priority 2010, published 2015)
“Also recorded” adds a separate entry of the source. Ends that are not written are not given here. * marks the point of attachment. FITC = O=C1OC2(c3ccc(O)cc3Oc3cc(O)ccc32)c2ccc(NC(=S)*)cc21

Columns and labels:
X-protein = experiment: X-protein-mediated apoptosis of HepG2 transfectants (annexin-V staining); format: cell-based, hepatitis B virus; details: 10 μM peptide at 3 h, 3 and 24 h, or 3, 24 and 48 h, 51 h culture, listed as oligomerization domain peptide (aa 16-35)
Description: No PSG antibiotic was added to the medium as it can interfere with transfection efficiency. The medium was then removed and replaced with opti-MEM medium without 10% FCS. The amount of plasmid DNA used for transfection was […]. Firstly, 0.2 μg of either pcDNA3.1-HBX or pcDNA3-HBX Myc plasmid DNA was mixed with 25 μl of Opti-MEM medium, and then 0.2 μl of polymag transfection reagent was added (these solutions were prepared as a master mixes—the amounts mentioned are indicative for one well). The mixture was incubated for 20 min and then 25 μl added to the cells. The plate was placed onto a magnetic plate on a rotating platform for 20 min, and then the cells incubated for 3 h.
Cells were transfected with X-protein plasmid vectors as described above. After 3 h of transfection on the magnetic plate, the oligomerization domain peptide aa 16-35 or the control X-protein peptide aa 140-153 were added at a final concentration of 10 μM to the cells in MEM without 10% FCS, and cells incubated for either 3 h, 21 h, or 45 h. Peptides were added to MEM without FCS as serum can rapidly degrade small peptides. […]
A drop of mounting solution with DAPI was added to the cells, and covered with a cover slip. Slides were examined by fluorescence microscopy by using a Nikon E600 fluorescent microscope and photos were taken using Nikon ACT-1 software. […]

C32 melanoma cell line = experiment: Peptide uptake by other cell lines; format: cell-based, human; details: C32, 3 h
Description: (§1) The cells were then incubated overnight at 37° and 5% CO2, and then washed thrice with media without FCS. The X-protein peptide in 250 μl of appropriate media without FCS was added to the cells at a final concentration of 10 μM, and the slides incubated for 3 h at 37° C. and 5% CO2. The cells were washed with PBS, fixed with 4% formaldahyde in PBS for 30 min, and washed thrice with PBS. […] The slides were dried overnight in the dark, and examined by microscopy by using a Nikon E600 fluorescent microscope. Photos were taken using Nikon ACT-1 software. For further examination, slides were then examined by confocal microscopy using a Leica TCS-SP2 confocal microscope.
(§2) The X-protein cell-permeable peptide aa 16-22 was tested for its ability to be taken up by other mammalian cell lines including the human C32 melanoma, DU145 prostate carcinoma, TK1 T cell lymphoma, H441 lung carcinoma, Rin-m5f rat pancreatic islet tumor and Cos-1/7 green monkey kidney cell lines. TK1 cells are suspension cells whereas all other cell lines are adherent cells. Cells were incubated with the fluoresceinated X-protein cell-permeable peptide 16-22 for 3 h in medium appropriate for that cell line in the absence of FCS. The HepG2 cell line was used as a positive control. The X-protein peptide was able enter all adherent cell lines regardless of type or source of the cell (FIGS. 22 and 23).

[1] = system: DU145 prostate carcinoma cell line; experiment: Peptide uptake by other cell lines; format: cell-based, human; details: DU145, 3 h
Description: as §1, §2

Cos-1 kidney cell line = experiment: Peptide uptake by other cell lines; format: cell-based, green monkey
Description: as §1, §2

Cos-7 kidney cell line = experiment: Peptide uptake by other cell lines; format: cell-based, green monkey
Description: as §1, §2

[2] = system: nonadherent peripheral blood mononuclear cells; experiment: Peptide uptake by nonadherent buffy coat cells; format: cell-based, human; details: 3 h, RPMI without FCS
Description: To determine whether this was a general feature of nonadherent cells, the ability of the peptide to enter non-adherent human peripheral blood mononuclear cells was examined. A buffy coat containing monocytes, lymphocytes, and platelets was isolated from 10 ml of human blood and incubated in 8-chamber slides for 3 h with the cell-permeable peptide aa 16-22 in RPMI medium without FCS.

adherent TK1 T cells = experiment: Peptide uptake by attached TK1 cells; format: cell-based
Source text: As above, the lymphocytic cell line TK1 in suspension was not able to take up the X-protein cell-permeable peptide aa 16-22. Once activated, circulating lymphocytes have the ability to adhere to the vascular endothelium, to attach to antigen presenting cells, and to attach to and move through the extracellular matrix. The fact that adherent monocytes took up the peptide raised the possibility that TK1 T cells attached to a surface might also be able to take up the X-protein cell permeable peptide aa 16-22. TK1 cells were adhered to MAdCAM-1-coated glass slides or left to bind directly to the surface of the glass slides. Cells attached to the slides were incubated with the X-protein cell-permeable peptide aa 16-22 for 3 h in RPMI without FCS. Virtually all TK1 cells attached via α4β7 to MAdCAM-1 took up the peptide, whereas only 50 to 60% of cells directly attached to the glass slide took up the peptide (FIG. 27).

Substance: FITC-Acp-LCLRPVGAESRGRPVSGPFG [Peptide 16-35]
- inhibition of full-length X-protein-mediated apoptosis (X-protein; pCDNA3-HBX Myc transfectants): inhibited full-length X-protein-mediated apoptosis of HepG2 cells; also recorded: significantly reduced X-protein-mediated apoptosis in a dose-dependent fashion
- inhibition of truncated X-protein-mediated apoptosis (X-protein; pCDNA3.1-HBX transfectants): inhibited truncated X-protein-mediated apoptosis of HepG2 cells; also recorded: significantly reduced X-protein-mediated apoptosis in a dose-dependent fashion

Substance: FITC-LCLRPVG ({FITC}-LCLRPVG) [Peptide 16-22]
- entry into cells (C32 melanoma cell line): able to enter
- uptake of the peptide, cells positive (C32 melanoma cell line; no FCS): > 90 % cells positive
- entry into cells [1]: able to enter
- uptake of the peptide, cells positive ([1]; no FCS): > 90 % cells positive
- entry into cells (Cos-1 kidney cell line; COS-1, 3 h): taken up less efficiently
- uptake of the peptide, cells positive (Cos-1 kidney cell line; Cos-1, 3 h, no FCS): 60 to 70 % cells positive
- entry into cells (Cos-7 kidney cell line; COS-7, 3 h): taken up less efficiently
- uptake of the peptide, cells positive (Cos-7 kidney cell line; Cos-7, 3 h, no FCS): 60 to 70 % cells positive
- uptake by nonadherent buffy coat cells ([2]; listed as X-protein cell-permeable peptide 16-22): unable to enter
- uptake by nonadherent buffy coat cells ([2]; listed as cell-permeable peptide aa 16-22): did not take up the peptide
- uptake by adherent TK1 T cells (adherent TK1 T cells; adhered to MAdCAM-1-coated glass slides or to the slides directly): took up
- TK1 cells that took up the peptide (adherent TK1 T cells; attached via α4β7 to MAdCAM-1, 3 h): Virtually all
- TK1 cells that took up the peptide (adherent TK1 T cells; directly attached to the glass slide, 3 h): 50 to 60 % of cells
